In patent US20170209473A1, “ADIPONECTIN SECRETION REGULATOR” (THE UNIVERSITY OF TOKYO, priority 2014, published 2017):

Legend:
Format in all cases: cell-based, Mouse
adiponectin = assay: Adiponectin expression by adipocytes, reducing SDS-PAGE / Western blotting of culture supernatant; conditions: 3T3-L1-derived adipocytes, 24 hours serum-free DMEM, FIG. 1
Experimental: (§1) Mouse 3T3-L1 fibroblasts in a confluent state were induced with insulin to differentiate into adipocytes. The cells were then cultured for 48 hours in a DMEM medium containing 10% FBS. The cells were then cultured for 24 hours in a serum-free DMEM medium including L-fucose and/or D-glucose at the concentrations for each test section indicated in Table 1.
(§2) After culturing, the culture supernatant was collected and mixed with an equal amount of reducing SDS-PAGE (polyacrylamide gel electrophoresis) loading buffer and held for 10 minutes at 100° C., a 5-10-μL sample for each lane was subjected to SDS-PAGE, and the nuclear-receptor-type transcription factor PPAR-gamma, actin as an internal standard protein, and adiponectin were detected by a Western blotting method using specific antibodies for each in accordance with the usual method. A near-infrared fluorescence imager (“Odyssey Fc,” manufactured by LI-COR, Inc.) was used for the detection, and the relative expression levels of each protein were compared.

[1] = tested on: adiponectin monomers, trimers, hexamers and multimers; assay: Adiponectin multimerization state, non-reducing SDS-PAGE / Western blotting of culture supernatant; conditions: FIG. 2
Experimental: as §1
The cell culture supernatant in the same test sections as in Test Example 1 was collected, equivalent samples for each test section were subjected to non-reducing SDS-PAGE, and adiponectin monomers appearing at a molecular weight position of approximately 30 kDa, trimers appearing at a position of approximately 100 kDa, hexamers appearing at a position of approximately 200 kDa, and multimers appearing at higher molecular weight positions were detected by a Western blotting method using specific antibodies for adiponectin. A near-infrared fluorescence imager (“Odyssey Fc,” manufactured by LI-COR, Inc.) was used for the detection, and the various multimerization states were compared.

[2] = tested on: nuclear-receptor-type transcription factor PPAR-gamma; assay: PPAR-gamma expression in adipocytes, Western blotting; conditions: 3T3-L1-derived adipocytes, 24 hours, FIG. 1
Experimental: as §1, §2

[3] = 0.1 w/v % glucose + 0.1 w/v % L-fucose (test section 2) vs test section 1, tendency more pronounced at low glucose
[4] = 0.45 w/v % glucose + 0.1 w/v % L-fucose (test section 4) vs test section 3

In the case of `C[C@H](O)[C@@H](O)[C@@H](O)[C@H](O)C=O` [L-fucose], the “expression level of adiponectin” value (adiponectin; 0.1 w/v % glucose + 0.1 w/v % fucose (test section 2) vs test section 1 without fucose) was “tendency for the expression level of adiponectin to decrease”, the “expression level of adiponectin” value (adiponectin; 0.45 w/v % glucose + 0.1 w/v % fucose (test section 4) vs test section 3 without fucose) was “tendency for the expression level of adiponectin to decrease” and the adiponectin multimers [1, 3] was “increased”. For the same molecule, the “incidence of adiponectin monomers, trimers, and hexamers” value [1, 3] was “reduced”, the adiponectin multimers [1, 4] was “increased” and the “incidence of adiponectin monomers, trimers, and hexamers” value [1, 4] was “reduced”. The “expression level of PPAR-gamma” value ([2]; 0.1 w/v % D-glucose + 0.1 w/v % L-fucose (test section 2) vs test section 1) was “almost no change” and the “expression level of PPAR-gamma” value ([2]; 0.45 w/v % D-glucose + 0.1 w/v % L-fucose (test section 4) vs test section 3) was “slight decrease”.
